In PubChem BioAssay AID330 (DTP/NCI, 2004):
“And” between values parts separate entries of the source, which are not always exact repeats. Equal entries are not always repeated. Inconclusive results and toxic doses are left out.

Test system: P388 leukemia ip, CD2F1 mice, survival T/C
Assay: NCI In Vivo Anticancer Drug Screen. Data for tumor model P388 Leukemia (intraperitoneal) in CD2F1 (CDF1) mice
Settings: endpoint: median survival time, higher = longer survival
How it was run: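 Mice carrying the transplanted tumor received test compound or vehicle. Survival was recorded in each group, and the value is the treated-group measurement divided by that of the vehicle-treated control group.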

[1] = dose: 60.0 mg/kg/injection, schedule: Q01DX005 (ip), vehicle: saline with Tween-80
[2] = dose: 120.0 mg/kg/injection, schedule: Q01DX005 (ip), vehicle: saline with Tween-80
[3] = dose: 240.0 mg/kg/injection, schedule: Q01DX005 (ip), vehicle: saline with Tween-80
[4] = dose: 50.0 mg/kg/injection, schedule: Q01DX005 (ip), vehicle: saline
[5] = dose: 100.0 mg/kg/injection, schedule: Q01DX005 (ip), vehicle: saline
[6] = dose: 200.0 mg/kg/injection, schedule: Q01DX005 (ip), vehicle: saline
[7] = dose: 100.0 mg/kg/injection, schedule: Q04DX003 (ip), vehicle: saline with Tween-80
[8] = dose: 100.0 mg/kg/injection, schedule: Q04DX003 (ip), vehicle: saline
[9] = dose: 200.0 mg/kg/injection, schedule: Q04DX003 (ip), vehicle: saline with Tween-80
[10] = dose: 200.0 mg/kg/injection, schedule: Q04DX003 (ip), vehicle: saline
[11] = dose: 400.0 mg/kg/injection, schedule: Q04DX003 (ip), vehicle: saline with Tween-80
[12] = dose: 400.0 mg/kg/injection, schedule: Q04DX003 (ip), vehicle: saline
[13] = dose: 50.0 mg/kg/injection, schedule: Q01DX009 (ip), vehicle: Klucel (hydroxypropylcellulose) (HPC)
[14] = dose: 100.0 mg/kg/injection, schedule: Q01DX009 (ip), vehicle: Klucel (hydroxypropylcellulose) (HPC)
[15] = dose: 12.5 mg/kg/injection, schedule: Q01DX005 (ip), vehicle: Klucel (hydroxypropylcellulose) (HPC)
[16] = dose: 50.0 mg/kg/injection, schedule: Q01DX009 (ip), vehicle: saline
[17] = dose: 100.0 mg/kg/injection, schedule: Q01DX009 (ip), vehicle: saline
[18] = dose: 200.0 mg/kg/injection, schedule: Q01DX009 (ip), vehicle: saline
[19] = dose: 50.0 mg/kg/injection, schedule: Q01DX005 (ip), vehicle: Klucel (hydroxypropylcellulose) (HPC)
[20] = dose: 6.25 mg/kg/injection, schedule: Q01DX005 (ip), vehicle: saline with Tween-80
[21] = dose: 12.5 mg/kg/injection, schedule: Q01DX005 (ip), vehicle: saline with Tween-80
[22] = dose: 50.0 mg/kg/injection, schedule: Q01DX005 (ip), vehicle: saline with Tween-80

CN1C(=O)/C(=C2\SC(=O)N(CN3CCCCC3)C2=O)c2cc(Br)ccc21
T/C (dose: 60.0 mg/kg/injection, schedule: Q01DX005 (ip), vehicle: Klucel (hydroxypropylcellulose) (HPC)): 90 % of control
T/C (dose: 120.0 mg/kg/injection, schedule: Q01DX005 (ip), vehicle: Klucel (hydroxypropylcellulose) (HPC)): 90 % of control
T/C (dose: 240.0 mg/kg/injection, schedule: Q01DX005 (ip), vehicle: Klucel (hydroxypropylcellulose) (HPC)): 95 % of control

N#CC1=CCc2ccccc2N1C(=O)Oc1ccccc1
T/C [1]: 97 % of control
T/C [2]: 88 % of control
T/C [3]: 88 % of control

O=C(O)c1ccccc1C(=O)O
T/C (dose: 12.5 mg/kg/injection, schedule: Q01DX009 (ip), vehicle: water): 102 % of control
T/C (dose: 25.0 mg/kg/injection, schedule: Q01DX009 (ip), vehicle: water): 102 % of control
T/C (dose: 50.0 mg/kg/injection, schedule: Q01DX009 (ip), vehicle: water): 98 % of control
T/C (dose: 100.0 mg/kg/injection, schedule: Q01DX009 (ip), vehicle: water): 92 % of control
T/C (dose: 200.0 mg/kg/injection, schedule: Q01DX009 (ip), vehicle: water): 88 % of control

COc1ccc(CCNC2=CNCC2)cc1OC
T/C [4]: 101 % of control
T/C [5]: 98 % of control
T/C [6]: 95 % of control

Nc1nc(=S)c2n[nH]nc2[nH]1
T/C (dose: 11.0 mg/kg/injection, schedule: Q01DX009 (ip), vehicle: saline with Tween-80): 101 % of control and 105 % of control
T/C (dose: 12.5 mg/kg/injection, schedule: Q01DX009 (ip), vehicle: saline with Tween-80): 104 % of control
T/C (dose: 16.5 mg/kg/injection, schedule: Q01DX009 (ip), vehicle: saline with Tween-80): 98 % of control and 103 % of control
T/C (dose: 25.0 mg/kg/injection, schedule: Q01DX009 (ip), vehicle: saline with Tween-80): 103 % of control and 91 % of control
T/C (dose: 37.5 mg/kg/injection, schedule: Q01DX009 (ip), vehicle: saline with Tween-80): 98 % of control and 101 % of control

CC1(C)OCC2OC=CC(=O)C2O1 (configuration not stated)
T/C (dose: 50.0 mg/kg/injection, schedule: Q04DX003 (ip), vehicle: saline with Tween-80): 108 % of control
T/C [7]: 101 % of control
T/C [8]: 108 % of control
T/C [9]: 111 % of control
T/C [10]: 104 % of control
T/C [11]: 120 % of control
T/C [12]: 124 % of control

CCN=c1cc2oc3cc(NCC)c(C)cc3c(-c3ccccc3C(=O)OCC)c-2cc1C
T/C (dose: 0.4 mg/kg/injection, schedule: Q01DX005 (ip), vehicle: saline with Tween-80): 110 % of control
T/C (dose: 0.8 mg/kg/injection, schedule: Q01DX005 (ip), vehicle: saline with Tween-80): 116 % of control
T/C (dose: 1.6 mg/kg/injection, schedule: Q01DX005 (ip), vehicle: saline with Tween-80): 119 % of control

CC1=NN(c2cccc(C(F)(F)F)c2)C(=O)C1
T/C (dose: 25.0 mg/kg/injection, schedule: Q01DX009 (ip), vehicle: Klucel (hydroxypropylcellulose) (HPC)): 100 % of control
T/C [13]: 106 % of control
T/C [14]: 102 % of control

O=C1Cc2csc3nc(=O)cc(n23)N1
T/C [4]: 94 % of control
T/C [5]: 97 % of control
T/C [6]: 88 % of control

N[C@@]1(C(F)(F)F)N[C@](N)(C(F)(F)F)C(F)(F)C(F)(F)C1(F)F
T/C (dose: 6.25 mg/kg/injection, schedule: Q01DX005 (ip), vehicle: Klucel (hydroxypropylcellulose) (HPC)): 102 % of control
T/C [15]: 95 % of control

CC(=O)CCC(=O)OC(C)(C)CN
T/C (dose: 100.0 mg/kg/injection, schedule: Q01DX009 (ip), vehicle: saline with Tween-80): 100 % of control
T/C [7]: 100 % of control
T/C (dose: 200.0 mg/kg/injection, schedule: Q01DX009 (ip), vehicle: saline with Tween-80): 100 % of control
T/C [9]: 100 % of control
T/C (dose: 400.0 mg/kg/injection, schedule: Q01DX009 (ip), vehicle: saline with Tween-80): 104 % of control
T/C [11]: 104 % of control

O=C(O)CC1(C(=O)O)CCC(O)CC1 (configuration not stated)
T/C [16]: 100 % of control
T/C [17]: 107 % of control
T/C [18]: 100 % of control

CCC/C(=N/NC(N)=O)C(OC)OC
T/C (dose: 37.5 mg/kg/injection, schedule: Q01DX009 (ip), vehicle: saline): 92 % of control
T/C (dose: 75.0 mg/kg/injection, schedule: Q01DX009 (ip), vehicle: saline): 90 % of control

Nc1ncc2[nH]c(N)nc2n1
T/C [15]: 106 % of control
T/C (dose: 25.0 mg/kg/injection, schedule: Q01DX005 (ip), vehicle: Klucel (hydroxypropylcellulose) (HPC)): 97 % of control
T/C [19]: 104 % of control and 107 % of control

CC([NH-])C[NH-].O=C(O)CC(=O)O.[Pt+2]
T/C (dose: 25.0 mg/kg/injection, schedule: Q04DX002 (ip), vehicle: saline with Tween-80): 153 % of control and 158 % of control
T/C (dose: 50.0 mg/kg/injection, schedule: Q04DX002 (ip), vehicle: saline with Tween-80): 179 % of control and 183 % of control

COCCOC
T/C [16]: 95 % of control
T/C [17]: 98 % of control
T/C [18]: 100 % of control
T/C (dose: 400.0 mg/kg/injection, schedule: Q01DX009 (ip), vehicle: saline): 100 % of control

Cc1nc2c([N+](=O)[O-])c(N3CCCCC3)c([N+](=O)[O-])cc2[nH]1
T/C (dose: 100.0 mg/kg/injection, schedule: Q04DX002 (ip), vehicle: saline with Tween-80): 101 % of control
T/C (dose: 200.0 mg/kg/injection, schedule: Q04DX002 (ip), vehicle: saline with Tween-80): 104 % of control

CN(/N=C/c1ccc(Cl)cc1)P(=O)(N1CC1)N1CC1
T/C [20]: 116 % of control
T/C [21]: 116 % of control
T/C [22]: 171 % of control

CN(CCN1C(=O)c2cccc3cc([N+](=O)[O-])cc(c23)C1=O)CCN1C(=O)c2cccc3cc([N+](=O)[O-])cc(c23)C1=O
T/C [22]: 98 % of control
T/C (dose: 100.0 mg/kg/injection, schedule: Q01DX005 (ip), vehicle: saline with Tween-80): 97 % of control
T/C (dose: 200.0 mg/kg/injection, schedule: Q01DX005 (ip), vehicle: saline with Tween-80): 114 % of control

CC12CCC(=O)N1C(C(=O)O)CS2 (configuration not stated)
T/C (dose: 12.5 mg/kg/injection, schedule: Q04DX003 (ip), vehicle: saline): 119 % of control
T/C (dose: 25.0 mg/kg/injection, schedule: Q04DX003 (ip), vehicle: saline): 99 % of control and 106 % of control
T/C (dose: 50.0 mg/kg/injection, schedule: Q04DX003 (ip), vehicle: saline): 102 % of control and 109 % of control and 97 % of control
T/C [8]: 98 % of control and 123 % of control and 97 % of control
T/C [10]: 107 % of control
T/C [12]: 91 % of control

O=c1oc2ccc(Cl)cc2c(=O)n1-c1cc(Cl)ccc1[N+](=O)[O-]
T/C [4]: 100 % of control
T/C [5]: 99 % of control
T/C [6]: 104 % of control

CCCCCCCCCCC(=O)Nc1ncc([N+](=O)[O-])s1
T/C [13]: 96 % of control
T/C [14]: 100 % of control
T/C (dose: 200.0 mg/kg/injection, schedule: Q01DX009 (ip), vehicle: Klucel (hydroxypropylcellulose) (HPC)): 102 % of control

C=C(C)C(=O)N1c2ccc(OC)cc2CC1C(=O)OCC (configuration not stated)
T/C (dose: 60.0 mg/kg/injection, schedule: Q01DX005 (ip), vehicle: saline + Tween-80 + alcohol): 102 % of control
T/C (dose: 120.0 mg/kg/injection, schedule: Q01DX005 (ip), vehicle: saline + Tween-80 + alcohol): 100 % of control
T/C (dose: 240.0 mg/kg/injection, schedule: Q01DX005 (ip), vehicle: saline + Tween-80 + alcohol): 97 % of control

Cc1ncc(/C=N/O)n1Cc1ccccc1
T/C [1]: 99 % of control
T/C [2]: 93 % of control
T/C [3]: 90 % of control

CC(SSc1ccc(C(C)(C)C)cc1)c1ccccc1 (configuration not stated)
T/C [19]: 96 % of control
T/C (dose: 100.0 mg/kg/injection, schedule: Q01DX005 (ip), vehicle: Klucel (hydroxypropylcellulose) (HPC)): 104 % of control
T/C (dose: 200.0 mg/kg/injection, schedule: Q01DX005 (ip), vehicle: Klucel (hydroxypropylcellulose) (HPC)): 109 % of control

Cc1cc(=O)n(-c2ccccc2)c(=O)[nH]1
T/C [16]: 104 % of control
T/C [17]: 111 % of control
T/C [18]: 111 % of control

CCCCOc1ccc2nc3cc(Cl)ccc3c(Cl)c2n1
T/C [20]: 92 % of control
T/C [21]: 93 % of control
T/C (dose: 25.0 mg/kg/injection, schedule: Q01DX005 (ip), vehicle: saline with Tween-80): 86 % of control
